Where two headings read alike, the source gives them in different places.
System: weeds
Assay: Activity test of the compositions, soil sealing treatment
Type: in vivo
Conditions: for pest or weed control at 6 g/ha: B 0.4 g a.i./mu; for pest or weed control at 12 g/ha: B 0.8 g a.i./mu
Procedure: The desired active ingredient B was purchased from a reagent company or synthesized by a known method. The technical materials were all dissolved in acetone and diluted with an aqueous solution containing 0.10% emulsifier Tween-80 which were to be used immediately after dilution.
Weeds are cultivated in a controllable sunlight greenhouse at 20 to 30° C., in natural light, and with relative humidity of 57% to 72%. […] The test soil was filled quantitatively to ¾ of the pots and then watered from the bottom of the pots to completely wet the soil to saturation. The test weed seeds were accelerated to just germinate, and then evenly and quantitatively sowed on the surface, then covered with 0.5-1 cm soil according to the seed size, and ready for use 72 hours after sowing.
Each treatment was repeated 4 times. Four pots with 20 weed seeds per pot were treated each time.
The well-sowed test materials were evenly placed on a platform with an area of 0.5 m^2, and solution of agents was sprayed on the soil by the 3WP-2000-type walking spray tower at a dosage of 450 kg/ha and at a spray pressure of 0.3 MPa. After all the solution was sprayed, the valve was closed. After 30 seconds, the door of the spray tower was opened, and the nutritional bowl was taken out. Then the valve was opened, and the spray tube was cleaned by spraying 50 ml of water.
A method for investigating absolute numbers was employed. Whole seedlings of survival weeds were cut off with a blade along the soil surface, and the fresh weight of the weeds was weighed with an analytical balance. For dead weeds, the fresh weight thereof was zero.
The investigation was performed 21 days after the treatment for only once in total.

[1] = Echinochloa crus-galli, Echinochloa crusgalli, soil (S), B 0.5 g a.i./mu, read-out: Control effect (%) of B applied alone (B)
[2] = Echinochloa crus-galli, Echinochloa crusgalli, soil (S), B 1 g a.i./mu, read-out: Control effect (%) of B applied alone (B)
[3] = Echinochloa crus-galli, Echinochloa crusgalli, soil (S), B 2 g a.i./mu, read-out: Control effect (%) of B applied alone (B)
[4] = Echinochloa crus-galli, Echinochloa crusgalli, soil (S), read-out: Control effect (%) of B applied alone (B)
[5] = Lolium multiflorum, soil (S), B 20 g a.i./mu, read-out: Control effect (%) of B applied alone (B)
[6] = Lolium multiflorum, soil (S), B 40 g a.i./mu, read-out: Control effect (%) of B applied alone (B)
[7] = Lolium multiflorum, soil, read-out: Control effect (%) of B applied alone (B)
[8] = Echinochloa crus-galli, soil, read-out: Control effect (%) of B applied alone (B)
[9] = Cyperus difformis, soil (S), B 0.5 g a.i./mu, read-out: Control effect (%) of B applied alone (B)
[10] = Echinochloa crusgalli, soil (S), B 2 g a.i./mu
[11] = Echinochloa crusgalli, soil (S), B 4 g a.i./mu
[12] = Echinochloa crus-galli, Echinochloa crusgalli, soil (S), B 16 g a.i./mu, read-out: Control effect (%) of B applied alone (B)
[13] = Echinochloa crus-galli, Echinochloa crusgalli, soil (S), B 32 g a.i./mu, read-out: Control effect (%) of B applied alone (B)
[14] = Lolium multiflorum, soil (S), B 16 g a.i./mu, read-out: Control effect (%) of B applied alone (B)
[15] = Lolium multiflorum, soil (S), B 32 g a.i./mu, read-out: Control effect (%) of B applied alone (B)
[16] = Echinochloa crus-galli, Echinochloa crusgalli, soil (S), B 6 g a.i./mu, read-out: Control effect (%) of B applied alone (B)
[17] = Echinochloa crus-galli, Echinochloa crusgalli, soil (S), B 12 g a.i./mu, read-out: Control effect (%) of B applied alone (B)
[18] = Lolium multiflorum, soil (S), read-out: Control effect (%) of B applied alone (B)

COC(=O)[C@@H](C)O/N=C/c1cc(-n2c(=O)cc(C(F)(F)F)n(C)c2=O)c(F)cc1Cl showed a pest or weed control at 7.5 g/ha [1] of 31.5% and a pest or weed control at 15 g/ha [2] of 42.3%.
COC(=O)C12ON=C(c3cc(-n4c(=O)cc(C(F)(F)F)n(C)c4=O)c(F)cc3Cl)C1CCC2C (stereo not drawn) gave a pest or weed control at 15 g/ha [2] of 40.2% and a pest or weed control at 30 g/ha [3] of 53.1%.
Cc1ccccc1CO[C@@H]1C[C@@]2(C(C)C)CC[C@]1(C)O2 (racemic) [cinmethylin] was tested, and the pest or weed control at 6 g/ha [4] was 26.4% and the pest or weed control at 12 g/ha [4] was 38.6%.
CC(C)CCCCCOC(=O)COc1ccc(Cl)cc1Cl [2,4-D isooctyl ester] was tested, and the “Control effect (%) of B applied alone (B)” value (“Control effect (%)” for short) (Veronica didyma, soil (S), B 6 g a.i./mu) was 33.6% and the “Control effect (%)” value (Veronica didyma, soil (S), B 12 g a.i./mu) was 42.5%.
Compound CCOCN(C(=O)CCl)c1c(C)cccc1CC [acetochlor] has a pest or weed control at 180 g/ha (Lolium multiflorum, soil (S), B 12 g a.i./mu, read-out: Control effect (%) of B applied alone (B)) of 36.5% and a pest or weed control at 360 g/ha (Lolium multiflorum, soil (S), B 24 g a.i./mu, read-out: Control effect (%) of B applied alone (B)) of 45.7%.
Nc1c([N+](=O)[O-])ccc(Oc2ccccc2)c1Cl [aclonifen] showed a pest or weed control at 300 g/ha [5] of 31.6% and a pest or weed control at 600 g/ha [6] of 52.1%.
For CCNc1nc(NC(C)C)nc(SC)n1 [ametryne], the pest or weed control at 300 g/ha [7] was 18.1% and the pest or weed control at 600 g/ha [7] was 31.6%.
Work on COP(=S)(OC)SCC(=O)N(c1ccc(Cl)cc1)C(C)(C)C [anilofos] yielded a pest or weed control at 30 g/ha [8] of 23.1% and a pest or weed control at 60 g/ha [8] of 32.6%.
Compound CCNc1nc(Cl)nc(NC(C)C)n1 [atrazine] has a pest or weed control at 300 g/ha [5] of 18.9% and a pest or weed control at 600 g/ha [6] of 36.6%.
With CCC(Oc1ccc(F)c(C(F)(F)F)c1)C(=O)NCc1ccccc1 (stereo not drawn) [beflubutamid] the “Control effect (%)” value (Veronica didyma, soil (S), B 1 g a.i./mu) was 42.6% and the “Control effect (%)” value (Veronica didyma, soil (S), B 2 g a.i./mu) was 57.9%.
Compound COC(=O)c1ccccc1CS(=O)(=O)NC(=O)Nc1nc(OC)cc(OC)n1 [bensulfuron-methyl] has a pest or weed control at 7.5 g/ha [9] of 42.6% and a pest or weed control at 15 g/ha (Cyperus difformis, soil (S), B 1 g a.i./mu, read-out: Control effect (%) of B applied alone (B)) of 55.8%.
With CS(=O)(=O)c1ccc(C(=O)C2=C(Sc3ccccc3)C3CCC(C3)C2=O)c(Cl)c1 (stereo not drawn) [benzobicyclon] the “Control effect (%)” value [10] was 22.6% and the “Control effect (%)” value [11] was 42.8%.
In the case of CC(C)(NC(=O)C(Br)C(C)(C)C)c1ccccc1 (stereo not drawn) [bromobutide], the pest or weed control at 240 g/ha [12] is reported as 37.3% and the pest or weed control at 480 g/ha [13] is reported as 53.6%.
For CCCCOCN(C(=O)CCl)c1c(CC)cccc1CC [butachlor], the pest or weed control at 240 g/ha [14] was 28.8% and the pest or weed control at 480 g/ha [15] was 46.4%.
CCC(C)Nc1c([N+](=O)[O-])cc(C(C)(C)C)cc1[N+](=O)[O-] (stereo not drawn) [butralin] showed a pest or weed control at 240 g/ha [7] of 19.5% and a pest or weed control at 480 g/ha [7] of 35.8%.
Work on Cc1ccc(NC(=O)N(C)C)cc1Cl [chlorotoluron] yielded a pest or weed control at 225 g/ha (Alopecurus japonicus, soil (S), B 15 g a.i./mu, read-out: Control effect (%) of B applied alone (B)) of 34.2% and a pest or weed control at 450 g/ha (Alopecurus japonicus, soil (S), B 30 g a.i./mu, read-out: Control effect (%) of B applied alone (B)) of 58.3%.
In the case of O=C(Nc1ccc(F)cc1F)c1cccnc1Oc1cccc(C(F)(F)F)c1 [diflufenican], the pest or weed control at 15 g/ha (Lolium multiflorum, soil (S), B 1 g a.i./mu, read-out: Control effect (%) of B applied alone (B)) is reported as 37.1% and the pest or weed control at 30 g/ha (Lolium multiflorum, soil (S), B 2 g a.i./mu, read-out: Control effect (%) of B applied alone (B)) is reported as 52.4%.
With COC[C@H](C)N(C(=O)CCl)c1c(C)csc1C [dimethenamid-P] the “Control effect (%)” value [11] was 34.2% and the “Control effect (%)” value (Echinochloa crusgalli, soil (S), B 8 g a.i./mu) was 47.5%.
COCC(C)N(C(=O)CCl)c1c(C)csc1C (stereo not drawn) [dimethenamid] showed a pest or weed control at 90 g/ha [16] of 31.5% and a pest or weed control at 180 g/ha [17] of 43.7%.
In the case of CSC(=O)c1c(C(F)F)nc(C(F)(F)F)c(C(=O)SC)c1CC(C)C [dithiopyr], the pest or weed control at 60 g/ha (Echinochloa crus-galli, Echinochloa crusgalli, soil (S), B 4 g a.i./mu, read-out: Control effect (%) of B applied alone (B)) is reported as 40.1% and the pest or weed control at 120 g/ha (Echinochloa crus-galli, Echinochloa crusgalli, soil (S), B 8 g a.i./mu, read-out: Control effect (%) of B applied alone (B)) is reported as 53.2%.
For CN(C)C(=O)Nc1ccc(Cl)c(Cl)c1 [diuron], the pest or weed control at 600 g/ha [7] was 39.4% and the pest or weed control at 1200 g/ha [7] was 65.3%.
CCOC(=O)COc1ncccc1Oc1cc(-n2c(=O)cc(C(F)(F)F)n(C)c2=O)c(F)cc1Cl [epyrifenacil] was tested, and the “Control effect (%)” value (Amaranthus retroflexus, soil (S), B 0.5 g a.i./mu) was 36.9% and the “Control effect (%)” value (Amaranthus retroflexus, soil (S), B 1 g a.i./mu) was 47.1%.
CCOc1ccccc1OS(=O)(=O)NC(=O)Nc1nc(OC)cc(OC)n1 [ethoxysulfuron] showed a pest or weed control at 3.75 g/ha (Cyperus difformis, soil (S), B 0.25 g a.i./mu, read-out: Control effect (%) of B applied alone (B)) of 44.6% and a pest or weed control at 7.5 g/ha [9] of 58.4%.
For COc1ccc(-n2c(=O)c(C(=O)C3C(=O)CCCC3=O)nc3c(Cl)cccc32)cc1 [fenquinotrione], the “Control effect (%)” value (Lolium multiflorum, soil (S), B 1.5 g a.i./mu) was 28.6% and the “Control effect (%)” value (Lolium multiflorum, soil (S), B 3 g a.i./mu) was 44.1%.
With CCN(C(=O)n1nnn(-c2ccccc2Cl)c1=O)C1CCCCC1 [fentrazamide] the pest or weed control at 240 g/ha [12] was 32.5% and the pest or weed control at 480 g/ha [13] was 50.8%.
With CC(C)N(C(=O)COc1nnc(C(F)(F)F)s1)c1ccc(F)cc1 [flufenacet] the pest or weed control at 90 g/ha [16] was 29.8% and the pest or weed control at 180 g/ha [17] was 37.5%.
C#CCN1C(=O)COc2cc(F)c(N3C(=O)C4=C(CCCC4)C3=O)cc21 [flumioxazin] gave a pest or weed control at 7.5 g/ha [1] of 32.8% and a pest or weed control at 15 g/ha [2] of 45.1%.
Compound O=C1C(Cl)C(CCl)CN1c1cccc(C(F)(F)F)c1 (stereo not drawn) [flurochloridone] has a pest or weed control at 60 g/ha (Veronica polita, Veronica didyma, soil (S), B 4 g a.i./mu, read-out: Control effect (%) of B applied alone (B)) of 45.1% and a pest or weed control at 120 g/ha (Veronica polita, Veronica didyma, soil (S), B 8 g a.i./mu, read-out: Control effect (%) of B applied alone (B)) of 60.8%.
With COc1cc(OC)nc(NC(=O)NS(=O)(=O)c2c(C(=O)O)c(Cl)nn2C)n1 [halosulfuron] the pest or weed control at 7.5 g/ha (Veronica polita, Veronica didyma, soil (S), B 0.5 g a.i./mu, read-out: Control effect (%) of B applied alone (B)) was 34.8% and the pest or weed control at 15 g/ha (Veronica polita, Veronica didyma, soil (S), B 1 g a.i./mu, read-out: Control effect (%) of B applied alone (B)) was 54.6%.
In the case of COCc1cnc(C2=NC(C)(C(C)C)C(=O)N2)c(C(=O)O)c1 (stereo not drawn) [imazamox], the pest or weed control at 6 g/ha [18] is reported as 25.4% and the pest or weed control at 12 g/ha [18] is reported as 42.7%.
With CCc1cnc(C2=NC(C)(C(C)C)C(=O)N2)c(C(=O)O)c1 (stereo not drawn) [imazethapyr] the pest or weed control at 15 g/ha [2] was 33.4% and the pest or weed control at 30 g/ha [3] was 43.8%.
With CC(C)N(C(=O)n1cnn(-c2ccc(Cl)cc2Cl)c1=O)c1ccc(F)cc1F [ipfencarbazone] the “Control effect (%)” value [10] was 41.5% and the “Control effect (%)” value [11] was 57.6%.
CC(C)c1ccc(NC(=O)N(C)C)cc1 [isoproturon] gave a pest or weed control at 120 g/ha (Alopecurus japonicus, soil (S), B 8 g a.i./mu, read-out: Control effect (%) of B applied alone (B)) of 41.5% and a pest or weed control at 240 g/ha (Alopecurus japonicus, soil (S), B 16 g a.i./mu, read-out: Control effect (%) of B applied alone (B)) of 53.6%.
For CS(=O)(=O)c1cc(C(F)(F)F)ccc1C(=O)c1cnoc1C1CC1 [isoxaflutole], the pest or weed control at 15 g/ha [2] was 26.4% and the pest or weed control at 30 g/ha [3] was 44.3%.
Compound CN(C(=O)COc1nc2ccccc2s1)c1ccccc1 [mefenacet] has a pest or weed control at 240 g/ha [14] of 18.5% and a pest or weed control at 480 g/ha [15] of 38.3%.
In the case of COc1cc(OC)nc(NC(=O)NS(=O)(=O)c2c(C3=NOCC(C)O3)c(Cl)nn2C)n1 (stereo not drawn) [metazosulfuron], the “Control effect (%)” value (Echinochloa crusgalli, soil (S), B 0.75 g a.i./mu) is reported as 32.4% and the “Control effect (%)” value (Echinochloa crusgalli, soil (S), B 1.5 g a.i./mu) is reported as 41.6%.
